Like-named read-outs stand apart in the source and are kept apart here.
How the values were obtained:
[1] = human
Description: (§1) (Taylor, M. S. et al., 2012, Methods in Enzymology 514:205-228.) For in vitro as well as in vivo pharmacokinetic analyses, inhibitor concentration was determined using LC/MS/MS.
(§2) GOAT inhibitor (Compound 1) and control (Compound 2) were added to liver S9 fractions or mouse plasma and the concentrations of each compound over time were quantified using LC/MS/MS.

[2] = tested on: GOAT/preproghrelin-expressing INS-1 cells; test: acyl ghrelin production in intact cells, Western immunoblot; assay type: cell-based; conditions: 18 hours incubation
Description: Molecular parameters for Compound 1 were well within those characteristics of orally bioavailable drugs. In INS-1 cell culture, compounds were administered to cultured INS-1 cells that had been engineered to express GOAT and preproghrelin. After incubating the cells in the presence of the compounds for 18 hours, the cells were lysed and ghrelin species (acyl ghrelin vs. total ghrelin) present in the lysates were quantified by Western immunoblot. […] Total ghrelin levels were unchanged irrespective of the inhibitor concentration that was present.

[3] = target: T1, mouse GOAT (Mus musculus, UniProt P0C7A3); test: ghrelin radio-octanoylation assay (Yang et al.), Sf9 membrane fractions; assay type: biochemical; conditions: for GOAT-inhibiting activity in vitro: relative to Compound 1
T1 construct: made in house; host or cells: Sf9 insect cells (baculovirus), membrane fractions
T1 sequence (P0C7A3 1-435): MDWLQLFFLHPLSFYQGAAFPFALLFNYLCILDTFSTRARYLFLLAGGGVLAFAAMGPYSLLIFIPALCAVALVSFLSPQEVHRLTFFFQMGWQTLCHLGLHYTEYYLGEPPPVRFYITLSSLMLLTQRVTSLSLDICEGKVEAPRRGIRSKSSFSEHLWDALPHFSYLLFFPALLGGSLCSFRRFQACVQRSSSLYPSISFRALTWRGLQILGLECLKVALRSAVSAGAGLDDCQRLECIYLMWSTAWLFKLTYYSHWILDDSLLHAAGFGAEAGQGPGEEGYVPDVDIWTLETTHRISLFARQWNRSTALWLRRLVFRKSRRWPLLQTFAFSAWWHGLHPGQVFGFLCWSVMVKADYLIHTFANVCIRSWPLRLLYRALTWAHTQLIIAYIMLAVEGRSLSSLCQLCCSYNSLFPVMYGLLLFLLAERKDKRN
Description: In vitro activity was quantified using the octanoylation assay developed by Yang et al. (2008, Proc. Natl. Acad. Sci. USA 105:10750-10755). No pure or soluble form of GOAT that retains enzymatic activity is thus far available. Recombinant poly-His-tagged ghrelin was incubated with radiolabeled octanoyl CoA and membrane fractions isolated from Sf9 cells infected with a GOAT-encoding baculovirus. Recovery of acyl- and des-acyl ghrelin using a Ni^2+ affinity column was followed by scintillation counting to determine the extent of acyltransferase activity, which was reported as a percentage of control.
Thiosarcosine derived peptidomimetic Compound 1 (of Example 1.1) and truncated analog Compound 2 (of Example 1.2), which served as a negative control, were screened for GOAT-inhibiting activity using membrane fractions prepared from Sf9 cells infected with baculovirus encoding mouse GOAT as a source of the acyltransferase. The assay detected specific acyl transfer from tritiated octanoyl-CoA to recombinant His-tagged proghrelin.

[4] = mouse plasma
Description: as §1, §2

[5] = stability in mouse plasma (LC/MS/MS)
Description: as §1, §2

[6] = stability in liver S9 fractions (LC/MS/MS); conditions: human liver S9 fractions
Description: as §1, §2

[7] = measured LogD; assay type: physicochemical
[8] = oral bioavailability; assay type: in vivo
[9] = tested on: acyl ghrelin : total ghrelin ratio in serum; test: time course of serum acyl ghrelin after IP administration; assay type: in vivo; conditions: mice, 80 mg/kg IP, FIG. 3
Description: Compound 1 was administered intraperitoneally (IP) to mice (dosed at 80 mg/kg) at time zero and blood samples were collected at indicated timepoints (see FIG. 3). Serum acyl ghrelin: total ghrelin ratios were determined using ELISA with antibodies specific for acyl or des-acyl ghrelin. Inhibitor concentrations were determined using LC/MS/MS detection. […] Reappearance of acyl-ghrelin tracked with the time-dependent change in inhibitor concentration in plasma.

[10] = Table 1, inhibitory activity against GOAT, cells printed in nM

CCCCC1CC(C(=O)NC[C@H]2CCCN2C(=O)[C@@H](N)C(C)(C)C)C1.CCCCC1CC(C(=O)NC[C@H]2CCCN2C(=O)[C@@H](N)C(C)(C)C)C1.O=C(O)C(O)C(O)C(=O)O (stereo partly drawn) [Compound 2, (1s,3R)—N—(((R)-1-((S)-2-AMINO-3,3-DIMETHYLBUTANOYL)PYRROLIDIN-2-YL)METHYL)-3-BUTYLCYCLOBUTANECARBOXAMIDE HEMITARTRATE]
Liver S9 t1/2 [1]: 2.08 h | inhibition of acyl ghrelin biosynthesis ([2]; FIG. 4): inactive | GOAT-inhibiting activity in vitro [3]: inactive | Plasma t1/2 [4]: 1.52 h

CCCC[C@H]1C[C@@H](C(=O)NCCN(C)C(=O)[C@@H](NC(=O)CN)C2CCCCC2)C1 [Entry 1]
IC50 [3, 10]: 2000 nM

CCCCC1CC(C(=O)NC[C@H]2CCCN2C(=O)[C@@H](N)C(C)(C)C)C1 (some centres unmarked) [Entry 2]
IC50 [3, 10]: > 3000 nM

CCCC[C@H]1C[C@@H](C(=O)NC[C@H]2CCCN2C(=O)[C@@H](NC(=N)CN)C2CCCCC2)C1 [Entry 7]
IC50 [3, 10]: > 3000 nM

CCCC[C@H]1C[C@@H](C(=O)NC[C@H]2CCCN2C(=O)[C@@H](N)C2CCCCC2)C1 [Entry 9]
IC50 [3, 10]: > 3000 nM

C=CCOC(=O)NCC(=S)N[C@H](C(=O)N1CCC[C@@H]1CNC(=S)C1CC(CCCC)C1)C(C)(C)C (some centres unmarked) [Entry 15]
IC50 [3, 10]: > 3000 nM

CCCC[C@H]1C[C@H](C(=S)NC[C@H]2CCCN2C(=O)[C@@H](NC(=S)CN)C(C)(C)C)C1 [Entry 16, (1s,3R)—N—(((R)-1-((S)-2-(2-AMINOETHANETHIOAMIDO)-3,3-DIMETHYLBUTANOYL)PYRROLIDIN-2-YL)METHYL)-3-BUTYLCYCLOBUTANECARBOTHIOAMIDE]
IC50 [3, 10]: 200 nM

CCCC[C@H]1C[C@@H](C(=S)NC[C@H]2CCCN2C(=O)[C@@H](NC(=O)CN)C2CCCCC2)C1 [Entry 20]
IC50 [3, 10]: 650 nM

CCCC[C@H]1C[C@H](C(=O)NC[C@H]2CCCN2C(=O)[C@@H](NC(=S)CN)C(C)(C)C)C1 [Entry 26]
IC50 [3, 10]: 25 nM

CCCCC1CC(C(=S)NC[C@H]2CCCN2C(=O)[C@@H](NC(=S)CN)C(C)(C)C)C1 (stereo partly drawn) [inhibitor 10, (1s,3R)—N—(((R)-1-((S)-2-(2-AMINOETHANETHIOAMIDO)-3,3-DIMETHYLBUTANOYL)PYRROLIDIN-2-YL)METHYL)-3-BUTYLCYCLOBUTANECARBO-THIOAMIDE HEMITARTRATE]
GOAT-inhibiting activity in vitro [3]: equally potent

(1s,3R)-3-BUTYL-N—(((R)-1-((S)-3,3-DIMETHYL-2-(2-(METHYLAMINO)ETHANETHIOAMIDO)BUTANOYL)PYRROLIDIN-2-YL)METHYL)CYCLOBUTANE CARBOXAMIDE HEMITARTRATE [Compound 1]
concentration at which production of acyl ghrelin was inhibited ([2]; FIG. 4): greater than 1 μM | concentration at which production of acyl ghrelin was substantially completely blocked ([2]; FIG. 4): above 5 μM | total ghrelin levels ([2]; irrespective of inhibitor concentration): unchanged | Plasma t1/2 [5]: >10.5 h | stability in mouse plasma [5]: stable | Liver S9 t1/2 [6]: 2.03 h | metabolism by liver S9 fractions [6]: slowly metabolized | Measured LogD [7]: 1.71 | oral bioavailability % F [8]: 10-15% | time at which acyl-ghrelin recovered [9]: 3 h | acyl-ghrelin in circulation ([9]; within minutes): near undetectable levels | IC50 ([3]; FIG. 2, tritiated octanoyl-CoA, His-tagged proghrelin): ~30 nM | potency compared side-by-side with prior art GOAT inhibitors ([3]; FIG. 6, versus compounds 3, 4, 5 and 6): by far the most potent inhibitor of GOAT
